In general, EC50 refers to the concentration needed to bring the measured effect to its halfway point.

Where two headings read alike, the source gives them in different places.

Here are results for 30 compounds from patent US20230382924A1, “MODULATORS OF CYSTIC FIBROSIS TRANSMEMBRANE CONDUCTANCE REGULATOR” (VERTEX PHARMACEUTICALS INCORPORATED, priority 2020, published 2023).

The target of this test is CFTR (Homo sapiens, UniProt P13569). Put plainly: Membrane Potential Dye, Enteroid Assay A. The settings on record: for EC50: read-out: Ent. A EC50. Type of test: cell-based. Summed up:
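Signal is reported as % Activity relative to a triple CFTR modulator control (3 μM + 3 μM + 300 nM acute). Read-out: membrane potential fluorescence (20 μM methyl oxonol) monitored for 15 min after chloride-free stimulation. Dye loading took 25 min at room temperature in Bath 1 buffer containing CaCC blockers.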

Chain of CFTR (P13569 with tags, fused parts or gaps DEL508-508): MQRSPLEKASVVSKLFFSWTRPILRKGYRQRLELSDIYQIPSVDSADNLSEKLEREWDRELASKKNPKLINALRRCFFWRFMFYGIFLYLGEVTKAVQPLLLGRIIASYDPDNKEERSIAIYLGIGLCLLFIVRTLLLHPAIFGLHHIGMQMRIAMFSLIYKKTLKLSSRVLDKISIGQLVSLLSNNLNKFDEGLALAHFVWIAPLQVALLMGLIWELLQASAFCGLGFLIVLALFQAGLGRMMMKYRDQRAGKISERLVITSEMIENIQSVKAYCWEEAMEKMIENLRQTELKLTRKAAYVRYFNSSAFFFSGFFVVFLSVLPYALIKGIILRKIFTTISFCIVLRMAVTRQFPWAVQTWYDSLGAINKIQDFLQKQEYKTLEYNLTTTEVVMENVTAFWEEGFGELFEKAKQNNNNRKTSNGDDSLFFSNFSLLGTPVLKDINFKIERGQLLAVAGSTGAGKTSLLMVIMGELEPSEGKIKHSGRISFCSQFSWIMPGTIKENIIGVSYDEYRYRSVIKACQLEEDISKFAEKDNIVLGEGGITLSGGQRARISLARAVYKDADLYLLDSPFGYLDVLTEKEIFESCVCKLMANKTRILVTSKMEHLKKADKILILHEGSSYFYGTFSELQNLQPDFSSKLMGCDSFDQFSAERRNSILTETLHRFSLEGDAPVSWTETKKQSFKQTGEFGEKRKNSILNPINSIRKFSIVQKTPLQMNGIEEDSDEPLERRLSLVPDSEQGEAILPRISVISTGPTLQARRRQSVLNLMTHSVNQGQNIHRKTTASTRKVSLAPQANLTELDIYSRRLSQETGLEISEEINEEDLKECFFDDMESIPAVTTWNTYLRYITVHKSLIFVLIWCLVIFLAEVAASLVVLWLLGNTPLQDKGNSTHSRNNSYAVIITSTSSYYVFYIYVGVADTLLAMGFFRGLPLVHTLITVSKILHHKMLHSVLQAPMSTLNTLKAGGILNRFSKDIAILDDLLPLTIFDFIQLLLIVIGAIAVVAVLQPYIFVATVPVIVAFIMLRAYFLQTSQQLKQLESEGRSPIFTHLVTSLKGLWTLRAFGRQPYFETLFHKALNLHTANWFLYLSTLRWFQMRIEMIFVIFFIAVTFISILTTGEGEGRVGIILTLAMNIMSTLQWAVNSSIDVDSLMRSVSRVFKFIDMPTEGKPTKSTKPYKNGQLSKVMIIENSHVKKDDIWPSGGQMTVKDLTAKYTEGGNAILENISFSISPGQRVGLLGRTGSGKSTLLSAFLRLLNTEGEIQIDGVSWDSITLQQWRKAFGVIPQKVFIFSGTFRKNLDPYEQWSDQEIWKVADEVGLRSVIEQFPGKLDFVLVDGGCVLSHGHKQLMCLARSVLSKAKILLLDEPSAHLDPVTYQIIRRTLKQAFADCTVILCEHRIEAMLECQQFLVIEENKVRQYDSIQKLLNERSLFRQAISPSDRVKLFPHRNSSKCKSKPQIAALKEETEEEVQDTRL

Consider `COc1cc(C)c(CN2CCC3(CC2)CNC(=O)c2cccc(c2)S(=O)(=O)Nc2nc(cc(-c4c(C)cccc4C)n2)OC3)cc1C` [Compound 438], for which, for the setting “Enteroid Assay A”, the “Ent. A Max Activity” value is reported as “++ (++ is 30-60%)” and the EC50 lay in the range of 1 to 3 µM. For `Cc1cccc(C)c1-c1cc2nc(n1)NS(=O)(=O)c1cccc(c1)C(=O)NCC1(CCN(C[C@H]3COC(C)(C)N3C(=O)OC(C)(C)C)CC1)CO2` [Compound 439] the same measures were “++ (++ is 30-60%)” and 3 to 30 µM. For `Cc1cccc(C)c1-c1cc2nc(n1)NS(=O)(=O)c1cccc(c1)C(=O)NCC1(CCN(CCC(C)CC(C)(C)C)CC1)CO2` (centres unmarked) [Compound 441] the same measures were “+++ (+++ is >600%)” and less than 1 µM. In the case of `Cc1cccc(C)c1-c1cc2nc(n1)NS(=O)(=O)c1cccc(c1)C(=O)NCC1(CCN(Cc3ccccc3)CC1)CO2` [Compound 442], the EC50 (Enteroid Assay A) was 3 to 30 µM. `Cc1cccc(C)c1-c1cc2nc(n1)NS(=O)(=O)c1cccc(c1)C(=O)NCC1(CCN(CCC(C)(C)C)CC1)CO2` [Compound 443]: where the note is “Enteroid Assay A”, the “Ent. A Max Activity” value was “++ (++ is 30-60%)”. As to `Cc1cccc(C)c1-c1cc2nc(n1)NS(=O)(=O)c1cccc(c1)C(=O)NCC1(CCN(CCc3ccccc3)CC1)CO2` [Compound 444], under “Enteroid Assay A”, the “Ent. A Max Activity” value is recorded as “++ (++ is 30-60%)” and the EC50 lay in the range of 3 to 30 µM. For `Cc1cccc(C)c1-c1cc2nc(n1)NS(=O)(=O)c1cccc(c1)C(=O)NCC1(CCN(CCOCc3ccccc3)CC1)CO2` [Compound 445] the same measures were “++ (++ is 30-60%)” and 3 to 30 µM.

With `CCCC(NC(=O)OC(C)(C)C)C(=O)N1CCC2(CC1)CNC(=O)c1cccc(c1)S(=O)(=O)Nc1nc(cc(-c3c(C)cccc3C)n1)OC2` (centres unmarked) [Compound 449], where the note is “Enteroid Assay A”, the “Ent. A Max Activity” value is “++ (++ is 30-60%)”.

As to `Cc1cccc(C)c1-c1cc2nc(n1)NS(=O)(=O)c1cccc(c1)C(=O)NCC1(CCN(C(=O)C(CC(C)C)NC(=O)OC(C)(C)C)CC1)CO2` (centres unmarked) [Compound 450], where the note is “Enteroid Assay A”, the “Ent. A Max Activity” value is “++ (++ is 30-60%)” and the EC50 was 3 to 30 µM. The like results for `COc1ccc2c(c1)c(C(=O)N1CCC3(CC1)CNC(=O)c1cccc(c1)S(=O)(=O)Nc1nc(cc(-c4c(C)cccc4C)n1)OC3)c(C)n2C1CC1` [Compound 451] were, in that order, “++ (++ is 30-60%)” and 3 to 30 µM.

With `Cc1cccc(C)c1-c1cc2nc(n1)NS(=O)(=O)c1cccc(c1)C(=O)NCC1(CCN(C(=O)c3cc4ccccc4n3CC#N)CC1)CO2` [Compound 452], under “Enteroid Assay A”, the “Ent. A Max Activity” value is on record as “++ (++ is 30-60%)” and the EC50 was 1 to 3 µM. For `Cc1cccc(C)c1-c1cc2nc(n1)NS(=O)(=O)c1cccc(c1)C(=O)NCC1(CCN(C(=O)c3c(C)c4ccccc4n3C)CC1)CO2` [Compound 455] the same measures were “++ (++ is 30-60%)” and 1 to 3 µM. The like results for `Cc1cccc(C)c1-c1cc2nc(n1)NS(=O)(=O)c1cccc(c1)C(=O)NCC1(CCN(C(=O)C3CCCCN3Cc3ccc(F)cc3)CC1)CO2` (centres unmarked) [Compound 456] were, in that order, “++ (++ is 30-60%)” and 3 to 30 µM. The like results for `COc1cccc(-c2cccc(C(=O)N3CCC4(CC3)CNC(=O)c3cccc(c3)S(=O)(=O)Nc3nc(cc(-c5c(C)cccc5C)n3)OC4)c2)c1` [Compound 459] were, in that order, “++ (++ is 30-60%)” and 1 to 3 µM.

As for `Cc1nc(C(F)(F)F)c(C(=O)N2CCC3(CC2)CNC(=O)c2cccc(c2)S(=O)(=O)Nc2nc(cc(-c4c(C)cccc4C)n2)OC3)s1` [Compound 460], where the note is “Enteroid Assay A”, the “Ent. A Max Activity” value is on record as “++ (++ is 30-60%)”. The same measure, in the same setting: the same measure for `Cc1cccc(C)c1-c1cc2nc(n1)NS(=O)(=O)c1cccc(c1)C(=O)NCC1(CCN(C(=O)c3cc4c(cc3O)CCCC4)CC1)CO2` [Compound 462]: “++ (++ is 30-60%)”. Consider `Cc1cccc(C)c1-c1cc2nc(n1)NS(=O)(=O)c1cccc(c1)C(=O)NCC1(CCN(C(=O)C3(c4ccc5c(c4)CCC5)CC3)CC1)CO2` [Compound 464], for which, under “Enteroid Assay A”, the “Ent. A Max Activity” value is recorded as “+++ (+++ is >600%)” and the EC50 fell in the range of 1 to 3 µM.

Consider `Cc1cccc(C)c1-c1cc2nc(n1)NS(=O)(=O)c1cccc(c1)C(=O)NCC1(CCN(C(=O)[C@H]3[C@H](c4ccccc4)C3(C)C)CC1)CO2` [Compound 465], for which, under “Enteroid Assay A”, the “Ent. A Max Activity” value is “++ (++ is 30-60%)” and the EC50 was in the range of 1 to 3 µM. The like results for `Cc1cccc(C)c1-c1cc2nc(n1)NS(=O)(=O)c1cccc(c1)C(=O)NCC1(CCN(C(=O)CO[C@@H]3C[C@H](C)CC[C@H]3C(C)C)CC1)CO2` [Compound 468] were, in that order, “++ (++ is 30-60%)” and 1 to 3 µM.

Take `CCC[C@H](NC(=O)OC(C)(C)C)C(=O)N1CCC2(CC1)CNC(=O)c1cccc(c1)S(=O)(=O)Nc1nc(cc(-c3c(C)cccc3C)n1)OC2` [Compound 469]: where the note is “Enteroid Assay A”, the “Ent. A Max Activity” value is given as “++ (++ is 30-60%)” and the EC50 was in the range of 3 to 30 µM. Turning to `Cc1cccc(C)c1-c1cc2nc(n1)NS(=O)(=O)c1cccc(c1)C(=O)NCC1(CCN(C(=O)C3CC[C@@H](NC(=O)OC(C)(C)C)C3)CC1)CO2` (some centres unmarked) [Compound 470], the “Ent. A Max Activity” value (Enteroid Assay A) is listed as “++ (++ is 30-60%)”.

Take `Cc1cccc(C)c1-c1cc2nc(n1)NS(=O)(=O)c1cccc(c1)C(=O)NCC1(CCN(C(=O)C3CSCCN3C(=O)OC(C)(C)C)CC1)CO2` (centres unmarked) [Compound 471]: the “Ent. A Max Activity” value (Enteroid Assay A) was “++ (++ is 30-60%)”.

For the compound `Cc1cccc(C)c1-c1cc2nc(n1)NS(=O)(=O)c1cccc(c1)C(=O)NCC1(CCN(C(=O)[C@]3(C)CCCN3C(=O)OC(C)(C)C)CC1)CO2` [Compound 472], where the note is “Enteroid Assay A”, the “Ent. A Max Activity” value was “++ (++ is 30-60%)” and the EC50 lay within 3 to 30 µM. In the case of `Cc1cccc(C)c1-c1cc2nc(n1)NS(=O)(=O)c1cccc(c1)C(=O)NCC1(CCN(C(=O)c3ccccc3)CC1)CO2` [Compound 474], the EC50 (Enteroid Assay A) lay within 3 to 30 µM.

As for `Cc1cccc(C)c1-c1cc2nc(n1)NS(=O)(=O)c1cccc(c1)C(=O)NCC1(CCN(C(=O)CC(C)(C)C)CC1)CO2` [Compound 481], the “Ent. A Max Activity” value (Enteroid Assay A) was “++ (++ is 30-60%)”. `Cc1cccc(C)c1-c1cc2nc(n1)NS(=O)(=O)c1cccc(c1)C(=O)N[C@H](COCc1ccccc1)CO2` [Compound 486]: under “Enteroid Assay A”, the “Ent. A Max Activity” value is recorded as “+++ (+++ is >600%)” and the EC50 was in the range of 1 to 3 µM. Regarding `Cc1cccc(C)c1-c1cc2nc(n1)NS(=O)(=O)c1cccc(c1)C(=O)NC1c3ccccc3CC1O2` (centres unmarked) [Compound 489], under “Enteroid Assay A”, the “Ent. A Max Activity” value was “+++ (+++ is >600%)” and the EC50 is less than 1 µM.

Turning to `Cc1cccc(C)c1-c1cc2nc(n1)NS(=O)(=O)c1cccc(c1)C(=O)NCC(CC(C)C)O2` (centres unmarked) [Compound 490], under “Enteroid Assay A”, the “Ent. A Max Activity” value is on record as “+++ (+++ is >600%)” and the EC50 was in the range of 1 to 3 µM. Consider `Cc1cccc(C)c1-c1cc2nc(n1)NS(=O)(=O)c1cccc(c1)C(=O)N[C@@H](CC(C)C)CO2` [Compound 491], for which the EC50 (Enteroid Assay A) fell in the range of 1 to 3 µM.

On to `Cc1cccc(C)c1-c1cc2nc(n1)NS(=O)(=O)c1cccc(c1)C(=O)NC1(CCC(C(C)(C)C)CC1)CO2` (centres unmarked) [Compound 495], for which, under “Table 9”, the “Ent. A Max Activity” value was “+++ (+++ is >60%)” and the concentration giving a half-maximal response (EC50) was less than 1 µM.
